According to the Bradley open melting point set (2014):
Where “and” joins values, the source holds several entries; their conditions need not be identical. Equal entries are not always repeated.

| Compound | melting point |
| --- | --- |
| O[C@@H]1OC[C@@H](OCc2ccccc2)[C@@H](OCc2ccccc2)[C@@H]1OCc1ccccc1 [2,3,4-tri-o-benzyl-beta-D-arabinopyranose] | 69 °C |
| ON=C(/C(=N\O)c1ccco1)c1ccco1 [2,2'-furil dioxime] | 165 °C |
| CC(C)(C)OC(=O)NCC(=O)O [boc-glycine] | 88.5 °C |
| COc1ccc2c(c1)CC1(CCC(O)(c3ccc(C(C)(C)C)cc3)CC1)C2O (stereo not given) | 104 °C |
| ON=C(Cl)c1ccc(Cl)cc1 [4-chloro-N-hydroxybenzenecarboximidoyl chloride] | 278 °C |
| Nc1ccc([N+](=O)[O-])cc1[N+](=O)[O-] [2,4-dinitroaniline] | 178 °C |
| CC(=O)c1sc(-c2ccccc2)cc1N [2-acetyl-3-amino-5-phenylthiophene] | 121 °C |
| CC(=O)C(=O)O [pyruvic acid] | 11.5 °C (2×) and 12 °C (2×) and 13.8 °C |
| CC(C)(C)OC(=O)Nc1ccc(C#N)cn1 [2-(boc-amino)-5-cyanopyridine] | 173 °C |
| OB(O)c1ccc2ccccc2c1 [2-naphthaleneboronic acid] | 267 °C |
| CC1CCCCC1 [methylcyclohexane] | -126 °C |
| CCCCCCCCO [1-octanol] | -15 °C |
| C=C[C@H]1C[N@@]2CC[C@H]1C[C@@H]2[C@@H](O)c1ccnc2ccc(OC)cc12 [quinidine] | 174 °C |
| Cc1ccccc1CP(=O)(O)O [2-methylbenzylphosphonic acid] | 186 °C |
| CC(O)CC(=O)O (stereo not given) [3-hydroxybutyric acid] | 38 °C |
| COc1ccc(I)cc1 [4-iodoanisole] | 50 °C |
| O=c1[nH][nH]c(=O)n1-c1ccccc1 [4-phenylurazole] | 208 °C |
| O=C(O)CC1CCCC1=O (stereo not given) [2-oxocyclopentylacetic acid] | 49 °C |
| CN(C)c1ccc(/C=C(\C#N)c2nc(-c3cccc4ccccc34)cs2)cc1 | 129 °C |
| CCCCCC1CCCCC1 [N-pentylcyclohexane] | -58 °C |

| Compound | melting point |
| --- | --- |
| C[C@@H](O)[C@@H](C)O [R,R-2,3-butanediol] | 16 °C |
| CC(=O)NC1C(OC(C)=O)OC(COC(C)=O)C(OC(C)=O)C1OC(C)=O (stereo not given) | 140 °C |
| Nc1ccc(C(=O)O)cc1 [4-Aminobenzoic acid] | 189 °C |
| CCCCCCCCCCCCCC(=O)O [tetradecanoic acid] | 55 °C |
| Oc1ccc(O)c(Cl)c1 [2-chlorohydroquinone] | 102 °C |
| N#CCCCCCCCCCCC#N [1,10-decanedicarbonitrile] | 18 °C |
| O=C1OC(=O)C2C3C=CC(C3)C12 (stereo not drawn) [cis-5-norbornene-endo-2,3-dicarboxylic anhydride] | 166 °C |
| CCCCc1ccc(C(=O)O)cc1 [4-butylbenzoic_acid] | 100 °C |
| CN[C@@H](C)[C@H](O)c1ccccc1 [ephedrine] | 34 °C |
| CC(CCc1oc2c(Br)cc(Br)cc2c1-c1ccc(C)o1)=NO | 158 °C |
| COc1ccc(Cl)c([N+](=O)[O-])c1 [4-chloro-3-nitroanisole] | 44 °C |
| CC(C)I [2-iodopropane] | -90 °C |
| CN(C)CCN1C(=O)c2ccccc2N(C)c2ccccc21 [dibenzepin] | 116 °C |
| O=C(O)c1cnn(-c2ccc([N+](=O)[O-])cc2)c1C(F)(F)F | 201 °C |
| O=S1(=O)CC=CC1 [3-sulfolene] | 65 °C |
| NNC(=O)c1ccc(Br)cc1 [4-bromobenzhydrazide] | 168 °C |
| Clc1cc(Cl)c(Cl)c(Cl)c1 [1,2,3,5-Tetrachlorobenzene] | 51.5 °C |
| Nc1cc([N+](=O)[O-])ccc1O [2-amino-4-nitrophenol] | 144 °C |
| O=C(O)Cc1ccccc1Nc1c(Cl)cccc1Cl [Diclofenac] | 157 °C |
| COC1CC(C(=O)Cl)CC(OC)C1OC (stereo not given) [3,4,5-trimethoxycyclohexanecarbonyl chloride] | 82 °C |
